Data: patent US5824683A, “2'-[[4'-h alo-[1,1'-biphenyl]-4-yl]methyl]-5'-methyl-spiro[cyclopentane-1,7' (8'H)-[3H] imidazo[2,1-b]purin]-4' (5'H)-ones” (Schering Corporation, priority 1996, dated 1998)

Columns and labels:
[1] = molecular target: T1, PDE Type V (cGMP phosphodiesterase, cGMP-PDE) (Bos taurus, UniProt Q28156); assay: Phosphodiesterase inhibition in vitro, Type V (cGMP phosphodiesterase, cGMP-PDE); format: biochemical; conditions: cGMP-PDE from bovine lung; 1 μM 3H-cGMP substrate; pH 7.5; 25 minutes, room temperature
T1 construct: homogeneous enzyme obtained from bovine lung and purified by ion-exchange chromatography, gel filtration, and sucrose gradient centrifugation; from tissue; host or cells: bovine lung

[2] = Plasma levels in SHR after oral dosing; format: in vivo; conditions: rat, 10 mg/kg, 10 mpk orally, sampled 0.5, 1, 2, 3 and 4 hours, read-out: Plasma Level AUC
Protocol: SHRs dosed orally with test compound at 10 mpk and plasma levels were subsequently measured at intervals of 0.5, 1, 2, 3 and 4 hours. Plasma levels (μg/ml) were plotted versus hours post dosing and the area under the curve (AUC, μghr/ml) was calculated.

[3] = system: spontaneously hypertensive rats (SHR); assay: Antihypertensive activity in conscious spontaneously hypertensive rats (SHR); format: in vivo, rat; conditions: 10 mpk po, fasted overnight, mean blood pressure
Protocol: The ability of the compounds of the present invention to lower blood pressure can be assessed in vivo in conscious spontaneously hypertensive rats (SHR). SHR males are purchased from Taconic Farms, Germantown New York and are approximately 16-18 weeks old when anesthetized with ether. The caudal (ventral tail) artery is cannulated with polyethylene tubing (PESO) and blood pressure and heart rate are recorded as described by Baum, T. et. al, J. Cardiovasc. Pharmacol. Vol 5, pp. 655-667, (1983). Rats are placed into plastic cylindrical cages where they rapidly recover consciousness. Blood pressure and heart rate are allowed to stabilize for approximately 90 minutes prior to compound administration. Compounds are administered orally as solutions or suspensions in 0.4% aqueous methylcellulose vehicle via a feeding needle. The compound or 0.4% aqueous methylcellulose vehicle are given in a volume of 4 ml/kg to SHRs that had been fasted overnight. Activity is expressed as the fall in mean blood pressure (MBP) in millimeters of mercury (mm Hg). Compound-induced changes are compared with the changes in an appropriate placebo group.

[4] = molecular target: T2, PDE Type I (calcium-calmodulin dependent phosphodiesterase, CaM-PDE) (Bos taurus, UniProt P14100); assay: Phosphodiesterase inhibition in vitro, Type I (calcium-calmodulin dependent phosphodiesterase, CaM-PDE); format: biochemical; conditions: CaM-PDE from bovine aorta; 1 μM 3H-cGMP substrate; pH 7.5; 25 minutes, room temperature
T2 construct: from tissue; host or cells: bovine aorta

IC50 [1] [nM] | AUC at 4 h [2] [ng·h/mL] | IC50 [4] [nM] | Structure (SMILES) | SHR Antihypertensive: Fall in MBP [3] [mmHg]
170 | 4800 | 11 | CN1C(=O)c2[nH]c(Cc3ccc(-c4ccc(Cl)cc4)cc3)nc2N2CC3(CCCC3)N=C12 [Example 1] | -24
210 | 5890 | 12 | CN1C(=O)c2[nH]c(Cc3ccc(-c4ccc(Br)cc4)cc3)nc2N2CC3(CCCC3)N=C12 [Example 2] | -11
520 | 7730 | 9 | CN1C(=O)c2[nH]c(Cc3ccc(-c4ccc(F)cc4)cc3)nc2N2CC3(CCCC3)N=C12 [Example 3] | -35
500 | 3340 | 5 | COc1ccc(-c2ccc(Cc3nc4c([nH]3)C(=O)N(C)C3=NC5(CCCC5)CN34)cc2)cc1 [Ref. Cpd., 2'-[[(4'-methoxy-1,1'-biphenyl) -4-yl]methyl]-5'-methyl-spiro[cyclopentane-1,7'(8'H)-[3H]imidazo-[2,1-b]purin]-4'(5'H)-one, reference compound] | -35
